EP0385952A2, “Use of a naphthalenmethanamino derivative as antiinflammatory agent and pharmaceutical compositions containing it” (SANDOZ AG, priority 1989, dated 1990)
Marks after values point to notes of the source that are not given here.

Tests used:
Type in all cases: in vivo
NMRI mice [1] = test: Arachidonic acid-induced pinnal swelling in mice (irritant contact dermatitis, 2.1.1.); details: prophylactic, epicutaneous, pinnal weight
Protocol: (§1) Skin irritation with arachidonic acid or cantharidin is often used to experimentally induce inflammation in order to evaluate the anti-inflammatory activity of a compound [see e.g. Inflammation 8 (1984) 134-135; 10 (1986) 205-214]. NMRI mice (8 animals per group) receive 10 µl of a 10 % solution of arachidonic acid [J.M. Young et al., J. Invest. Derm. 82 (1986) 367-371] in acetone or, respectively, 0.08 % cantharidin [K.E. Swingle et al., Arch. Int. Pharmacodyn. Ther. 254 (1981) 168-176] in acetone applied to the medial and lateral surface of the right external ear. Treatment is performed either prophylactically 30 minutes before irritation (arachidonic acid) or, respectively, either simultaneously with the application of irritant solution or therapeutically 20 minutes after irritation (cantharidin), by a single epicutaneous application of the test compound dissolved in a mixture of N,N-dimethylacetamide, acetone and alcohol (2:2:4). The evaluation of the test group is effected by comparison with a control group of animals having received on the right ear lobe only the carrier substance or the irritant solution. The animals are killed 1.5 hours (arachidonic acid) or, respectively, 17 hours (cantharidin) after application of the irritant and efficacy in assessed by determination of the differences in auricular weight. Differences in weights (D) of right (involved) and left (uninvolved) pinnae of animals treated with test compound and arachidonic acid or cantharidin (T-group) are compared with differences in mice treated with arachidonic acid only or cantharidin only (C-group). Efficacy (%) is calculated according to the equation: [formula]

NMRI mice [2] = test: Cantharidin-induced pinnal swelling in mice (irritant contact dermatitis, 2.1.1.); details: epicutaneous, pinnal weight
Protocol: as §1

mice [3] = test: Croton oil-induced pinnal swelling in mice (irritant contact dermatitis, 2.1.2.); details: simultaneous, topical, pinnal weight after 6 hours
Protocol: as §1
(§2) This model is similar to the above (see 2.1.1.). Skin inflammation is induced with 15 µl of 0.23 % croton oil in a mixture of dimethylacetamide, acetone and ethanol (2:4:4), or with 10 µl of 0.005 % TPA [12-O-tetradecanoylphorbol-13-acetate; Sigma] prepared in acetone with 0.5 % dimethylsulfoxide. Topical treatment is performed either simultaneously with the irritation (croton oil) or 20 minutes after the application (TPA). The test compound is prepared in DAE. Efficacy is assessed 6 hours after onset of irritation by determination of the auricular weight as described above.

mice [4] = test: TPA-induced pinnal swelling in mice (irritant contact dermatitis, 2.1.2.); details: therapeutic, topical, pinnal weight after 6 hours
Protocol: as §1, §2

guinea pigs = test: UV-erythema model (2.2.); details: therapeutic, test concentration 5.0 %, topical, erythema score
Protocol: Female guinea pigs weighing 250-300 g are used. On the day before experiment they are shorn on both flanks followed by a final dry shaving without skin irritation two hours before UV exposure. Two circular areas (10 mm diameter) on each flank are exposed 10 seconds to ultraviolet rays from […] at an intensity of 16 mW/cm² (UVA) and 500 mW/cm² (UVB). Drugs are administered topically immediately after exposure to UV light in a volume of 50 µl of 25 % ethanol and 75 %polyethylenglycol-400 to the irradiated skin areas on the right flank. Two areas on the left flank serve as vehicle control. Erythema is assessed visually 3.5 and 5.5 hours after irradiation and results expressed in scores. Changes in erythema intensity after drug administration are expressed as percentages of the scored erythema intensity in vehicle-treated areas.

SMILES: CCCCOc1ccc(CC(=O)NO)cc1 [Bufexamac, 2-[p-(n-butyloxy)phenyl]-acetohydroxamic acid, reference compound]
- Efficacy (%) (NMRI mice [1]; test concentration 1.2 %): 35* %
- Efficacy (%) (NMRI mice [1]; test concentration 3.6 %): 22* %
- Efficacy (%) (NMRI mice [2]; simultaneous, test concentration 1.2 %): 36%
- Efficacy (%) (NMRI mice [2]; simultaneous, test concentration 3.6 %): 29%
- Efficacy (%) (NMRI mice [2]; therapeutic, test concentration 1.2 %): 22%
- Efficacy (%) (NMRI mice [2]; therapeutic, test concentration 3.6 %): 14%
- Efficacy (%) (mice [3]; test concentration 1.2 %): 11%
- Efficacy (%) (mice [3]; test concentration 3.6 %): 36** %
- Efficacy (%) (mice [4]; test concentration 1.2 %): 1%
- Efficacy (%) (mice [4]; test concentration 3.6 %): 2%
- Efficacy (%) (guinea pigs): 8%
